What was measured:
[1] = tested on: human renal cancer 786-O transplantation; experiment: Effect on tumor weight of human renal cancer 786-O transplantation nude mice (Comparative Experimental Example 1); type: in vivo; settings: QD × 14 days, sorafenib as p-toluenesulfonate, FD-1210005 free form
Text: Comparative Experimental Example 1
The well grown 786-O solid tumor was cut into a mass of an average volume of about 1 mm^3 under aseptic conditions, and was used to inoculate nude mouse at axillary cavity of right forelimb subcutaneously via a trocar. The tumor growth state was observed regularly until the tumor grew into a volume of 250˜550 mm^3.
Animals with tumors of a too large or too small volume and an irregular shape were discarded. Tumor-bearing mice with a tumor volume of 250˜550 mm^3 in a good state were selected, 48 mice in total, and were divided into 6 groups, which were 1 solvent control group, 3 positive control groups, and 2 test sample groups. Both the positive control group and the test sample group were administered intragastrically once a day; the solvent control group was administered with 12.5% ethanol & 12.5% water solution of polyoxyethylene castor oil once a day; intragastrical volume was 10 mL/kg.
In the period of administration, tumor diameter was measured twice every week, tumor volume was calculated, and animal body weight was recorded. Animal state was observed when administered, and abnormal state was recorded.
Animal was sacrificed with CO2, and tumor was peeled off, weighed, and photographed. Animal was subjected to gross anatomy, and organs were observed by eyes to find if they were normal or not.
Observation Indexes: Tumor weight inhibiting rate (IR)=(WC−WT)/WC
Wherein WC and WT represented the average tumor weight of solvent control group and the average tumor weight of drug administration group, respectively.
Experimental data was subjected to calculation and relevant statistic processing by Microsoft Office Excel 2003 software. Unless otherwise specified, data was represented as Mean±Standard Error (Mean±S.E), and t-test is used in the comparison between two groups.

VEGFR2 = VEGFR2 (Homo sapiens (Human), UniProt P35968); experiment: Inhibitory activity of VEGFR2 kinase (HTRF KinEASE-TK kit); type: biochemical
Description: HTRF®KinEASE™-TK kit (Cat.62TKOPEC, Cisbio);
VEGFR2 (Cat: k2643, Sigma);
2.1 Preparation of VEGFR2 Kinase Reagent
1× kinase buffer: 1 mL 1× kinase buffer contained 200 μL 5× kinase buffer (Invitrogen), 5 μL, 1M MgCl2, 1 μL 1M DTT, 1 μL 1M MnCl2, and 793 μL ddH2O;
5×TK substrate-biotin and ATP working fluid: as the concentrations of TK substrate-biotin and ATP, please refer to Table 1. TK substrate-biotin and ATP were diluted with 1× kinase buffer to 5 folds of the reaction concentrations;
5× kinase working fluid: as the concentration of VEGFR2 kinase, please refer to Table 1. 5× kinase working fluid was prepared with 1× Kinase buffer;
4× Sa-XL665 working fluid: as the concentration of Sa-XL665 (Cisbio) in the reaction, please refer to Table 1. The 4× Sa-XL665 working fluid was prepared with assay buffer (Cisbio);
4×TK Ab-cryptate working fluid: TK Ab-Cryptate (Cisbio) was 100-fold diluted with assay buffer (Cisbio), as working fluid;
Experimental Procedure of HTRF KinEASE TK Kit
After all the reagents were prepared as described above, the reagents except for enzymes were equilibrated to room temperature, then adding samples were performed.
TK substrate-biotin, ATP, VEGFR2 kinase and a compound at a certain concentration were reacted in 1× kinase buffer at room temperature for 20 minutes. […] To all the reaction wells, 5 μl 4× Sa-XL665 working fluid and 5 μl 4×TK Ab-cryptate working fluid were added. After reacting at room temperature for 1 hours, fluorescence signal (excited at 320 nm, emitted at 665 nm, 615 nm) was detected by ENVISION detector (Perkinelmer). Based on the full-active well and the background signal well, the inhibition rate for each well was calculated, and the average value was used for duplicate wells. The half maximal inhibitory concentration (IC50) for each test compound was fitted by professional software Graphpad PRISM 5.0.
2.3 Data Analysis Emission light ratio (ER)=665 nm emission signal/615 nm emission signal Inhibition rate=(ERpositive−ERsample)/(ERpositive−ERnegative)*100%
HTRF KinEASE TK kit was used to determine the IC50 value of a compound for kinase VEGFR2. The final concentration of the compound started from 100 μM, and 4-fold gradient dilution was carried out to provide 10 concentrations. Duplicate wells were used for each concentration. The final concentration of DMSO was controlled to 1% in the reaction system.

Chain of VEGFR2 (P35968 20-1356): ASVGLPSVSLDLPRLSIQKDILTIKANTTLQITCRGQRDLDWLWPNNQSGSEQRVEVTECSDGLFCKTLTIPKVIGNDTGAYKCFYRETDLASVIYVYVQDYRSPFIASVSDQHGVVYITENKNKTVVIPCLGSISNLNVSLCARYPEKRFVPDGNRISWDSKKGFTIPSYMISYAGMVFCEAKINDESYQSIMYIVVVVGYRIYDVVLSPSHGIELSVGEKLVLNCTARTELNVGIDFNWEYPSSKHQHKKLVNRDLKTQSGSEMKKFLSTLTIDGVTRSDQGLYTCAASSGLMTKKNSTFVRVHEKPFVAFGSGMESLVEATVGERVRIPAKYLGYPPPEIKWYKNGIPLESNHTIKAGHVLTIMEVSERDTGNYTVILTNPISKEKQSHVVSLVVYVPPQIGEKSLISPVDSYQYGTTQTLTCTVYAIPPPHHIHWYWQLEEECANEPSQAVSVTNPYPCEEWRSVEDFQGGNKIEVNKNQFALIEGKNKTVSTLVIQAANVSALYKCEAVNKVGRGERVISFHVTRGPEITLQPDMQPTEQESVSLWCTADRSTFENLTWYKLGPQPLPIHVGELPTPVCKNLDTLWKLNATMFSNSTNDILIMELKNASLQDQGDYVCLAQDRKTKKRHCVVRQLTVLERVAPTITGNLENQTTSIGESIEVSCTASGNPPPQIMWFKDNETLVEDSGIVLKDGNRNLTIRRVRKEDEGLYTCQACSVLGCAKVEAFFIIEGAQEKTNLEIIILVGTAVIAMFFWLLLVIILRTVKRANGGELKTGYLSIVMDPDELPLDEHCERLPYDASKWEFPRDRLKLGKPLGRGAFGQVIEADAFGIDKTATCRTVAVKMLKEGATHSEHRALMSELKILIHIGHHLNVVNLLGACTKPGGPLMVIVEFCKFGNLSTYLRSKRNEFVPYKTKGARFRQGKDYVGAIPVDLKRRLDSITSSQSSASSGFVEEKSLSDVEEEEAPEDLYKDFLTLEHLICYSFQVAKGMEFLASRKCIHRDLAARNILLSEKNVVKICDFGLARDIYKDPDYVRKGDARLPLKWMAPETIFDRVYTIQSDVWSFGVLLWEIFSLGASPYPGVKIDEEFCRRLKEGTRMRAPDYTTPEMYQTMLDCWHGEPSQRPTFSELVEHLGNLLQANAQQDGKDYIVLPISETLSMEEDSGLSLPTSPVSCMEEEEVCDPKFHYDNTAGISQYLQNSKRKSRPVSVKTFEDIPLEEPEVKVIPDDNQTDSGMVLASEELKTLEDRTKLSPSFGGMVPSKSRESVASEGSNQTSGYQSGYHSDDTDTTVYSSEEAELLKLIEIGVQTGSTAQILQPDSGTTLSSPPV

Row | Structure (SMILES) | Tumor weight Mean ± S.E ([1]; 20 mg/kg po) [g] | Tumor-inhibiting rate ([1]; 20 mg/kg po) [%] | Tumor weight Mean ± S.E ([1]; 60 mg/kg po) [g] | Tumor-inhibiting rate ([1]; 60 mg/kg po) [%] | IC50 (VEGFR2; ATP 5 μM, 20 minutes, room temperature) [nM] | inhibitory activity as fold of that of Comparative compound 2 (VEGFR2; VEGFR2 kinase) [fold] | inhibitory activity as fold of that of Sorafenib (VEGFR2; VEGFR2 kinase) [fold] | IC50 value as fold of that of Comparative compound 2 (VEGFR2; VEGFR2 kinase, ratio of IC50) [fold] | IC50 value as fold of that of Sorafenib (free base) (VEGFR2; VEGFR2 kinase, ratio of IC50) [fold]
1 | CNC(=O)c1cc(Oc2ccc(NC(=O)Nc3ccc(Cl)c(C(F)(F)F)c3)cc2)ccn1 [Comparative example 1, Sorafenib, reference compound] | 0.5239 ± 0.1038 | 44.01 | 0.4407 ± 0.0581 | 52.89 |  |  |  |  | 
2 | Cn1cc(-c2nccc(Oc3ccc(NC(=O)Nc4ccc(Cl)c(C(F)(F)F)c4)cc3)c2Cl)cn1 [Example 2, 1-(4-chloro-3-(trifluoromethyl)phenyl)-3-(4-(3-chloro-2-(1-methyl-pyrazol-4-yl)-pyridin-4-yl-oxy)phenyl)urea] |  |  |  |  | 55.5 | 3.4 | 1.61 | 0.34 | 0.62

— patent US9902709B2, “Polysubstituted pyridine compound, preparation method, use and pharmaceutical composition” (PEKING UNIVERSITY FOUNDER GROUP CO., LTD., priority 2014, dated 2018)
